# According to US12098217B2, “Fusion peptides as antimicrobial agents” (CENTRE NATIONAL DE LA RECHERCHE SCIENTIFIQUE, priority 2019, dated 2024):
# Read-outs that look alike come from different tables or passages of the source. Square brackets hold non-standard residues; d marks the D form. Peptide text beside a SMILES is read from it. * marks the point of attachment. 5FAM = O=C1OC2(c3ccc(O)cc3Oc3cc(O)ccc32)c2ccc(C(=O)*)cc21; Phe(3,4-Cl2) = N[C@@H](Cc1ccc(Cl)c(Cl)c1)C(=O)O; Cha = N[C@@H](CC1CCCCC1)C(=O)O
# Legend:
# [1] = target: T1, E. coli SC (^EcSC, beta ring, DnaN) (Escherichia coli, UniProt P0A988); assay: ITC, peptide interaction with E. coli sliding clamp; type: binding
# T1 construct: inferred from the pET15b vector and the Ni-NTA/imidazole purification; made in house; host or cells: E. coli BL21 (DE3) pLys
# T1 sequence (P0A988 whole entry): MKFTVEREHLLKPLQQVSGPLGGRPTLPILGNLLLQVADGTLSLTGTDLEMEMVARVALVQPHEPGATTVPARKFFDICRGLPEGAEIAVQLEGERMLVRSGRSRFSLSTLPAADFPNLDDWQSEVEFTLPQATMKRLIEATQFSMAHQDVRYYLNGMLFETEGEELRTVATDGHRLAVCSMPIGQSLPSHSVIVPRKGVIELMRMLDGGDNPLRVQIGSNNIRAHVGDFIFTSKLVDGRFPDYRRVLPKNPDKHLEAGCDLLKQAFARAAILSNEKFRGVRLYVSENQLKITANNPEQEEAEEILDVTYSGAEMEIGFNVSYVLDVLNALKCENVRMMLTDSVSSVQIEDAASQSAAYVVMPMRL
# Procedure: The DnaN protein was expressed from plasmids pET15b, containing the dnaN gene from E. coli, transfected in BL21 (DE3) pLys E. coli strain. Cells were grown in LB at 37° C. to OD 0.5, then induced by IPTG (0.1 mM) at 28° C. overnight. DnaN protein was first enriched on a Ni-NTA column, eluted with an imidazole step (300 mM) and further purified on a Source Q column in buffer containing 20 mM Tris HCl pH 7.5, 0.5 mM EDTA and 10% glycerol, using a gradient from 0 to 0.5 M NaCl. After a final ultracentrifugation (45K, 1 h, 20° C.), soluble proteins were concentrated on a Centricon 30K (Millipore) in the same buffer and stored at 4° C. in 2 M ammonium sulfate.
# ITC experiments were performed on a iTC200 (Microcal Malvern Panalytical) or PEAQ-ITC instrument (Microcal Malvern Panalytical). The E. coli SC were washed extensively with ITC buffer (R1 buffer: 10 mM Hepes pH 7.4, 0.15 M NaCl, 3 mM EDTA) on Centrikon 10K at 4° C. before ITC experiments. […] Similarly, E. coli 70S ribosome particles were also washed extensively with ITC 70S buffer (50 mM Tris HCl pH7.5, 30 mM KCl, 70 mM NH4Cl, 7 mM MgCl2, 1 mM DTT, 5% glycerol) on Centrikon 100K at 4° C. before ITC experiments. […] […] Data were corrected from control experiments in which peptides were injected in ITC buffer solution. Each titration was performed at least twice. Analyses of experimental data were performed with AFFINImeter software (https://www.affinimeter.com; S4S, Santiago de Compostela, Spain).
# [2] = system: E. coli 70S ribosome (^Ec70S); assay: ITC, peptide interaction with E. coli 70S ribosome; type: binding
# Procedure: E. coli MRE600 cells were grown at 37° C. in LB medium until OD^600=1. Cells were centrifuged at 4° C., and pellets were resuspended in buffer A (20 mM Tris HCl pH 7.5; 200 mM NH4Cl; 20 mM MgCl2; 0.1 mM EDTA; 6 mM β-mercaptoethanol) and lysed using a French press at 1.6 kbar. The crude lysate was centrifuged (18 200 rpm) for 30 mn at 4° C. The supernatant was further centrifuged (47000 rpm) at 4° C. for 4 hours and the pellet resuspended in 12.5 ml of buffer A. This solution was laid on a 30% sucrose cushion and centrifuged (34 000 rpm) for 19 hours at 4° C. The ribosome pellet was resuspended in 12.5 ml buffer B (20 mM Tris HCl pH 7.5; 50 mM NH4Cl; 10 mM MgCl2; 0.1 mM EDTA; 6 mM β-mercaptoethanol) and centrifuged again (18 200 rpm) for 1 hour at 4° C. The supernatant was concentrated on Centrikon 100K (Millipore) and washed extensively with ITC 70S buffer. Ribosome concentration was determined by UV absorption at 260 nm. Samples were snap frozen in liquid nitrogen and kept at −80° C.
# ITC experiments were performed on a iTC200 (Microcal Malvern Panalytical) or PEAQ-ITC instrument (Microcal Malvern Panalytical). The E. coli SC were washed extensively with ITC buffer (R1 buffer: 10 mM Hepes pH 7.4, 0.15 M NaCl, 3 mM EDTA) on Centrikon 10K at 4° C. before ITC experiments. […] Similarly, E. coli 70S ribosome particles were also washed extensively with ITC 70S buffer (50 mM Tris HCl pH7.5, 30 mM KCl, 70 mM NH4Cl, 7 mM MgCl2, 1 mM DTT, 5% glycerol) on Centrikon 100K at 4° C. before ITC experiments. Peptides (100 to 400 μM) were titrated at 30° C. (303.15 K) in sequential injections (usually 2 μl each) into a SC (20 or 30 μM) or 70S (10 to 15 μM) solution. Data were corrected from control experiments in which peptides were injected in ITC buffer solution. Each titration was performed at least twice. Analyses of experimental data were performed with AFFINImeter software (https://www.affinimeter.com; S4S, Santiago de Compostela, Spain).
# The lack of interaction with the ribosome of E. coli has been measured by ITC at 30° C.:
# The interactions of these peptides with the E. coli SC (beta ring) and the ribosome were measured by ITC at […]: […]
# E. coli D22 strain = assay: microbe, parasite or virus in culture; type: cell-based; conditions: D22 strain, 36 h
# Source text: E. coli strain D22 (F-, IpxC101, proA23, lac-28, tsx-81, trp-30, his-51, tufA1, rpsL173(strR), ampCp-1 was purchased at E. coli Genetic Stock Center (Yale University) and used in the determination of MIC and in the peptide penetration assays. E. coli ATCC23724 cells were used to infect D. melanogaster flies. 70S ribosomes were purified from the E. coli MRE600 strain (Accession AY140951) and BL21 (DE3) pLys strain was used for production of the DnaN protein.
# (§1) E. coli strains were cultivated on either agar or liquid 1× Mueller Hinton broth unless specified. MIC assays were performed in duplicate in 96-well microtiter plates on the basis of the protocol recommended by the Clinical and Laboratory Standards Institute. Briefly, a mix of 5-6 fresh (less than 36 hours) colonies grown on MH agar plates were inoculated in 3 ml of MH broth and incubated for about 16 h at 37° C. under agitation. 30 μl of this saturated culture were inoculated in 3 ml of fresh medium and allowed to grow until OD600 nm of about 0.6-0.8. Dilution to an OD600 nm of 0.002 was made in MH broth. Within a time laps not exceeding 30 min, 50 μl of this cell suspension was added to 50 μl of MH broth (containing or not the peptide/antibiotic diluted in MH broth) in wells of a 96-well round bottom microwell plate (Greiner; final cell density about 2 to 5×10^5 cfu/ml). Plates were incubated at 37° C. for 18-24 h and final turbidity of each well was measured at 620 nm using a Multiskan FC microplate reader (Thermo Scientific). MIC was defined as the minimal antibiotic concentration that result in no increase of turbidity at that time. Each MIC determination was performed in duplicate and at least in two independent experiments. Plating of 75 μl of the content of the wells of interest on LB Agar plates was used to determine the MBC that is defined by a decrease of at least 99.9% of cell viability as compared to the number of viable cells in the inoculum (about 2 to 5×10^4 cfu).
# E. coli = conditions: cited from earlier work
# [3] = system: E. coli ATCC 25922 (DSM 1103) strain; type: cell-based; conditions: for MIC: ATCC 25922, 36 h
# Procedure: as §1
# The antimicrobial activities of these peptides have been tested against the E. coli ATCC 25922 (DSM 1103) strain in 1× Mueller-Hinton broth as mentioned above.
# The antimicrobial activities of these peptides and controls have been tested against the E. coli ATCC 25922 (DSM 1103) strain in 1× Mueller-Hinton broth.
# [4] = ITC 30° C., Table 2A, ^EcSC, Ni = no specific interaction
# [5] = ITC 30° C., Table 2B, ^Ec70S, Ni = no specific interaction, FITC peptides (*) values not well defined
# [6] = ITC, 30° C., E. coli ribosome, FITC-Onc112 series
# [7] = ITC 25° C., E. coli SC (beta ring)
structure (smiles),measurement,setting,value
"CC[C@H](C)[C@H](NC(=O)[C@@H]1CCCN1C(=O)[C@H](CCCNC(=N)N)NC(=O)[C@@H]1CCCN1C(=O)[C@@H]1CCCN1C(=O)[C@@H](NC(=O)[C@@H]1CCCN1C(=O)[C@H](CCCNC(=N)N)NC(=O)[C@@H]1CCCN1C(=O)[C@H](CC(C)C)NC(=O)[C@H](Cc1ccc(O)cc1)NC(=O)[C@H](CO)NC(=O)CNC(=O)[C@H](CCCCN)NC(=O)[C@H](CC(=O)O)NC(=O)[C@@H](N)C(C)C)[C@@H](C)O)C(=O)N[C@@H](Cc1ccc(O)cc1)C(=O)N[C@@H](CC(N)=O)C(=O)N[C@@H](CCCNC(=N)N)C(=O)N[C@@H](CC(N)=O)C(N)=O [Py, reference compound] (H-VDKGSYLPRPTPPRPIYNRN-NH2)","interaction with ^EcSC, in words",[1]; ITC 30° C.,do not interact
same,ΔH (kcal/mole),"[1]; ITC 30° C. (303.15 K), Table 2A, ^EcSC, Ni = no specific interaction",Ni
same,Kd (nM),[1]; [4],Ni
same,ΔG (kcal/mole),[1]; [4],Ni
same,−TΔS (kcal/mole),[1]; [4],Ni
same,Kd,"[2]; ITC 30° C., Table 2B, ^Ec70S, Ni = no specific interaction",0.0155 µM
same,ΔG,[2]; [5],-10.9 kcal/mol
same,ΔH,[2]; [5],-19.2 kcal/mol
same,−TΔS,[2]; [5],8.23 kcal/mol
same,MBC,E. coli D22 strain,8 µg/mL
same,MIC of previous reports,E. coli,3.69 to 7.56 µM
same,MIC of previous reports,E. coli; other E. coli strains and/or culture media,9 to 18 µg/mL
CC[C@H](C)[C@H](NC(=O)[C@@H](CCCNC(=N)N)NC(=O)[C@H](CCCNC(=N)N)NC(=O)[C@@H]1CCCN1C(=O)[C@@H]1CCCN1C(=O)[C@H](CCCNC(=N)N)NC(=O)[C@@H]1CCCN1C(=O)[C@H](CCCNC(=N)N)NC(=O)[C@@H]1CCCN1C(=O)[C@H](CC(C)C)NC(=O)[C@H](Cc1ccc(O)cc1)NC(=O)[C@@H]1CCCN1C(=O)[C@@H]1CCCN1C(=O)[C@H](CCCCN)NC(=O)[C@H](CC(=O)O)NC(=O)[C@@H](NC(=O)c1ccc2c(c1)C(=O)OC21c2ccc(O)cc2Oc2cc(O)ccc21)C(C)C)C(=O)N[C@@H](Cc1ccc(O)cc1)C(=O)N[C@@H](CC(N)=O)C(=O)N[C@H](CCCNC(=N)N)C(N)=O [CA3-124] (5FAM-VDKPPYLPRPRPPR[dR]IYN[dR]-NH2),Kd,[2]; [6],7.7 µM
same,ΔG (kcal/mol),[2]; [6],−7.1 (±0.4) kcal/mol
same,ΔH,[2]; [6],-22.6 kcal/mol
same,MIC,[3],32 to 64 µM
"CC[C@H](C)[C@H](NC(=O)[C@@H](CCCNC(=N)N)NC(=O)[C@H](CCCNC(=N)N)NC(=O)[C@@H]1CCCN1C(=O)[C@@H]1CCCN1C(=O)[C@H](CCCNC(=N)N)NC(=O)[C@@H]1CCCN1C(=O)[C@H](CCCNC(=N)N)NC(=O)[C@@H]1CCCN1C(=O)[C@H](CC(C)C)NC(=O)[C@H](Cc1ccc(O)cc1)NC(=O)[C@@H]1CCCN1C(=O)[C@@H]1CCCN1C(=O)[C@H](CCCCN)NC(=O)[C@H](CC(=O)O)NC(=O)[C@@H](NC(=O)[C@H](CCCCN)NC(=O)c1ccc2c(c1)C(=O)OC21c2ccc(O)cc2Oc2cc(O)ccc21)C(C)C)C(=O)N[C@@H](Cc1ccc(O)cc1)C(=O)N[C@@H](CC(N)=O)C(=O)N[C@H](CCCNC(=N)N)C(=O)NCC(=O)N1CCC[C@H]1C(=O)N[C@@H](CCCNC(=N)N)C(=O)N[C@@H](CCC(N)=O)C(=O)N[C@@H](CC1CCCCC1)C(=O)N[C@@H](CC(=O)O)C(=O)N[C@@H](CC(C)C)C(=O)N[C@@H](Cc1ccc(Cl)c(Cl)c1)C(=O)O [CM1-94] (5FAM-KVDKPPYLPRPRPPR[dR]IYN[dR]GPRQ[Cha]DL[Phe(3,4-Cl2)]-OH; N-terminus assumed)",Kd,[2]; [6],> 10 µM
same,MIC,[3],4 to 8 µM
CC[C@H](C)[C@H](NC(=O)[C@@H](CCCNC(=N)N)NC(=O)[C@H](CCCNC(=N)N)NC(=O)[C@@H]1CCCN1C(=O)[C@@H]1CCCN1C(=O)[C@H](CCCNC(=N)N)NC(=O)[C@@H]1CCCN1C(=O)[C@H](CCCNC(=N)N)NC(=O)[C@@H]1CCCN1C(=O)[C@H](CC(C)C)NC(=O)[C@H](Cc1ccc(O)cc1)NC(=O)[C@@H]1CCCN1C(=O)[C@@H]1CCCN1C(=O)[C@H](CCCCN)NC(=O)[C@H](CC(=O)O)NC(=O)[C@@H](NC(=O)[C@H](CCCNC(=N)N)NC(=O)[C@@H]1CCCN1C(=O)CNC(=O)[C@H](Cc1ccccc1)NC(=O)[C@H](CC(C)C)NC(=O)[C@H](CC(=O)O)NC(=O)[C@H](CC1CCCCC1)NC(=O)[C@H](CCC(N)=O)NC(C)=O)C(C)C)C(=O)N[C@@H](Cc1ccc(O)cc1)C(=O)N[C@@H](CC(N)=O)C(=O)N[C@H](CCCNC(=N)N)C(N)=O [CM1-76] (Ac-Q[Cha]DLFGPRVDKPPYLPRPRPPR[dR]IYN[dR]-NH2),ΔG,[1]; [7],-9.0 kcal/mol
same,ΔH,[1]; [7],-10.7 kcal/mol
same,"interaction with the E. coli ribosome (70S), in words",[2]; ITC 25° C.,no interaction
same,MIC,[3],8 to 16 µM
same,factor of improvement of antimicrobial activity versus CA3-30,"[3]; E. coli ATCC 25922, MIC",2
